Laboratory results reported in ChEMBL document CHEMBL1201861, “Genomics of Drug Sensitity in Cancer screening data, Wellcome Trust Sanger Institute”.

Assays:
Assay in all cases: cells
COLO-829 = format: functional, cell-based, Homo sapiens; settings: Homo sapiens, COLO-829
Description: SANGER: Inhibition of human COLO-829 cell growth in a cell viability assay.

D-263MG = format: functional, cell-based, Homo sapiens; settings: Homo sapiens, D-263MG
Description: SANGER: Inhibition of human D-263MG cell growth in a cell viability assay.

DU-4475 = format: functional, cell-based, Homo sapiens; settings: Homo sapiens, DU-4475
Description: SANGER: Inhibition of human DU-4475 cell growth in a cell viability assay.

ES5 = format: functional, cell-based, Homo sapiens; settings: Homo sapiens, ES5;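 note: growth inhibition of human ES5 cells, read out by a cell viability assay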
Description: SANGER: Inhibition of human ES5 cell growth in a cell viability assay.

ES6 = format: functional, cell-based; settings: Homo sapiens;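 note: growth inhibition of human ES6 cells, read out with a cell viability assay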
Description: SANGER: Inhibition of human ES6 cell growth in a cell viability assay.

ES7 = format: functional, cell-based, Homo sapiens; settings: Homo sapiens, ES7;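 note: growth inhibition of cultured human ES7 cells, read out as cell viability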
Description: SANGER: Inhibition of human ES7 cell growth in a cell viability assay.

EW-3 = format: functional, cell-based, Homo sapiens; settings: Homo sapiens, EW-3;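 note: cell viability assay read-out, IC50 reflects inhibition of growth of the EW-3 cells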
Description: SANGER: Inhibition of human EW-3 cell growth in a cell viability assay.

GOTO = format: functional, cell-based, Homo sapiens; settings: Homo sapiens, GOTO;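 note: growth inhibition of GOTO cells, read out by a cell viability assay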
Description: SANGER: Inhibition of human GOTO cell growth in a cell viability assay.

HCC2218 = format: functional, cell-based, Homo sapiens; settings: Homo sapiens, HCC2218;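 note: cell viability assay read-out, with IC50 given as the concentration that inhibits growth of the cell line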
Description: SANGER: Inhibition of human HCC2218 cell growth in a cell viability assay.

HEL = format: functional, cell-based, Homo sapiens; settings: Homo sapiens, HEL;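 note: growth inhibition of HEL cells, read out with a cell viability assay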
Description: SANGER: Inhibition of human HEL cell growth in a cell viability assay.

IST-MES1 = format: functional, cell-based, Homo sapiens; settings: Homo sapiens, IST-MES1;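 note: growth inhibition of IST-MES1 cells, measured with a cell viability assay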
Description: SANGER: Inhibition of human IST-MES1 cell growth in a cell viability assay.

K562 = format: functional, cell-based, Homo sapiens; settings: Homo sapiens, K562
KS-1 = format: functional, cell-based; settings: Homo sapiens;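 note: growth inhibition of KS-1 cells, read out with a cell viability assay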
Description: SANGER: Inhibition of human KS-1 cell growth in a cell viability assay.

L-363 = format: functional, cell-based, Homo sapiens; settings: Homo sapiens, L-363
L-428 = format: functional, cell-based, Homo sapiens; settings: Homo sapiens, L-428
Description: SANGER: Inhibition of human L-428 cell growth in a cell viability assay.

LS-1034 = format: functional, cell-based, Homo sapiens; settings: Homo sapiens, LS-1034
Description: SANGER: Inhibition of human LS-1034 cell growth in a cell viability assay.

LU-139 = format: functional, cell-based, Homo sapiens; settings: Homo sapiens, LU-139
Description: SANGER: Inhibition of human LU-139 cell growth in a cell viability assay.

MFM-223 = format: functional, cell-based, Homo sapiens; settings: Homo sapiens, MFM-223
Description: SANGER: Inhibition of human MFM-223 cell growth in a cell viability assay.

MOLT-4 = format: functional, cell-based, Homo sapiens; settings: Homo sapiens, MOLT-4;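 note: growth inhibition of MOLT-4 cells, determined with a cell viability readout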
Description: SANGER: Inhibition of human MOLT-4 cell growth in a cell viability assay.

MPP-89 = format: functional, cell-based, Homo sapiens; settings: Homo sapiens, MPP-89;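 note: growth inhibition of human MPP-89 cells, read out with a cell viability assay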
Description: SANGER: Inhibition of human MPP-89 cell growth in a cell viability assay.

MV4-11 = format: functional, cell-based, Homo sapiens, MV-4-11; settings: Homo sapiens, MV4-11;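 note: cell viability readout measuring growth inhibition of human MV-4-11 cells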
Description: SANGER: Inhibition of human MV-4-11 cell growth in a cell viability assay.

Mo = format: functional, cell-based, Homo sapiens; settings: Homo sapiens, Mo
Description: SANGER: Inhibition of human Mo-T cell growth in a cell viability assay.

NB10 = format: functional, cell-based, Homo sapiens; settings: Homo sapiens, NB10;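 note: growth inhibition of NB10 cells, read out by a cell viability assay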
Description: SANGER: Inhibition of human NB10 cell growth in a cell viability assay.

NB13 = format: functional, cell-based, Homo sapiens; settings: Homo sapiens, NB13;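 note: cell viability readout measuring growth inhibition of human NB13 cells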
Description: SANGER: Inhibition of human NB13 cell growth in a cell viability assay.

NB69 = format: functional, cell-based, Homo sapiens; settings: Homo sapiens, NB69;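 note: growth inhibition of NB69 cells, determined by a cell viability assay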
Description: SANGER: Inhibition of human NB69 cell growth in a cell viability assay.

NCI-H1299 = format: functional, cell-based; settings: Homo sapiens;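 note: growth inhibition of human NCI-H1299 cells, read out by a cell viability assay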
NCI-H1304 = format: functional, cell-based, Homo sapiens; settings: Homo sapiens, NCI-H1304;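 note: growth inhibition of the cancer cell line, measured in a cell viability assay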
Description: SANGER: Inhibition of human NCI-H1304 cell growth in a cell viability assay.

NCI-H1648 = format: functional, cell-based, Homo sapiens; settings: Homo sapiens, NCI-H1648;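 note: cell viability assay measuring inhibition of NCI-H1648 cell growth, from the Sanger screening data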
Description: SANGER: Inhibition of human NCI-H1648 cell growth in a cell viability assay.

NCI-H1770 = format: functional, cell-based, Homo sapiens; settings: Homo sapiens, NCI-H1770;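 note: growth inhibition of NCI-H1770 cells determined with a viability readout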
Description: SANGER: Inhibition of human NCI-H1770 cell growth in a cell viability assay.

NCI-H1838 = format: functional, cell-based, Homo sapiens; settings: Homo sapiens, NCI-H1838;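 note: growth inhibition of NCI-H1838 cells, determined with a cell viability readout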
Description: SANGER: Inhibition of human NCI-H1838 cell growth in a cell viability assay.

NCI-H720 = format: functional, cell-based, Homo sapiens; settings: Homo sapiens, NCI-H720;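 note: growth inhibition of human NCI-H720 cells determined by a cell viability assay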
Description: SANGER: Inhibition of human NCI-H720 cell growth in a cell viability assay.

NH-12 = format: functional, cell-based, Homo sapiens; settings: Homo sapiens, NH-12;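 note: growth inhibition of NH-12 cells, read out with a cell viability assay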
Description: SANGER: Inhibition of human NH-12 cell growth in a cell viability assay.

NOS-1 = format: functional, cell-based, Homo sapiens; settings: Homo sapiens, NOS-1;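 note: growth inhibition of the human NOS-1 cell line, read out with a cell viability assay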
Description: SANGER: Inhibition of human NOS-1 cell growth in a cell viability assay.

OS-RC-2 = format: functional, cell-based, Homo sapiens; settings: Homo sapiens, OS-RC-2;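 note: growth inhibition of human OS-RC-2 cells, measured by a cell viability assay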
Description: SANGER: Inhibition of human OS-RC-2 cell growth in a cell viability assay.

SF-126 = format: functional, cell-based, Homo sapiens; settings: Homo sapiens, SF-126;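 note: growth inhibition of human SF126 cells, read out with a cell viability assay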
SF-539 = format: functional, cell-based, Homo sapiens; settings: Homo sapiens, SF-539;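 note: Read-out is a cell viability assay, with IC50 reflecting inhibition of cell growth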
Description: SANGER: Inhibition of human SF539 cell growth in a cell viability assay.

SK-LMS-1 = format: functional, cell-based, Homo sapiens; settings: Homo sapiens, SK-LMS-1;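 note: growth inhibition of human SK-LMS-1 cells, read out with a cell viability assay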
SK-MEL-2 = format: functional, cell-based, Homo sapiens; settings: Homo sapiens, SK-MEL-2;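 note: growth inhibition of human SK-MEL-2 cells measured with a cell viability assay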
Description: SANGER: Inhibition of human SK-MEL-2 cell growth in a cell viability assay.

SK-NEP-1 = format: functional, cell-based, Homo sapiens; settings: Homo sapiens, SK-NEP-1;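 note: growth inhibition of human SK-NEP-1 cells, read out by a cell viability assay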
Description: SANGER: Inhibition of human SK-NEP-1 cell growth in a cell viability assay.

SK-PN-DW = format: functional, cell-based, Homo sapiens; settings: Homo sapiens, SK-PN-DW;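 note: growth inhibition measured with a viability assay on these cells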
SW684 = format: functional, cell-based, Homo sapiens; settings: Homo sapiens, SW684; read-out: IC50;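 note: growth inhibition of human SW684 cells, measured by a cell viability assay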
TE-1 = format: functional, cell-based, Homo sapiens; settings: Homo sapiens, TE-1
697 = format: functional, cell-based, Homo sapiens; settings: Homo sapiens
A704 = format: functional, cell-based; settings: Homo sapiens;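 note: growth inhibition of human A704 cells, read out with a cell viability assay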
Description: SANGER: Inhibition of human A704 cell growth in a cell viability assay.

ATN-1 = format: functional, cell-based, Homo sapiens; settings: Homo sapiens, ATN-1;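 note: growth inhibition of human ATN-1 cells, read out with a cell viability assay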
Description: SANGER: Inhibition of human ATN-1 cell growth in a cell viability assay.

BB49-HNC = format: functional, cell-based, Homo sapiens; settings: Homo sapiens, BB49-HNC;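 note: cell viability assay read-out, reported as inhibition of BB49-HNC cell growth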
Description: SANGER: Inhibition of human BB49-HNC cell growth in a cell viability assay.

TE-12 = format: functional, cell-based, Homo sapiens; settings: Homo sapiens, TE-12;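 note: growth inhibition of TE-12 cells, read out by a cell viability assay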
Description: SANGER: Inhibition of human TE-12 cell growth in a cell viability assay.

TE-6 = format: functional, cell-based, Homo sapiens; settings: Homo sapiens, TE-6;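 note: growth inhibition of TE-6 cells, read out with a cell viability assay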
Description: SANGER: Inhibition of human TE-6 cell growth in a cell viability assay.

TK-10 = format: functional, cell-based, Homo sapiens; settings: Homo sapiens, TK-10;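 note: growth inhibition of TK-10 cells, read out in a cell viability assay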
Description: SANGER: Inhibition of human TK10 cell growth in a cell viability assay.

CGTH-W-1 = format: functional, cell-based, Homo sapiens; settings: Homo sapiens, CGTH-W-1;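 note: growth inhibition of human CGTH-W-1 cells measured by cell viability assay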
Description: SANGER: Inhibition of human CGTH-W-1 cell growth in a cell viability assay.

C[C@@H](Oc1cc(-c2cnn(C3CCNCC3)c2)cnc1N)c1c(Cl)ccc(F)c1Cl [CRIZOTINIB]
IC50 (COLO-829): > 2 µM | IC50 (D-263MG): > 2 µM | IC50 (DU-4475): > 2 µM | IC50 (ES5): > 2 µM | IC50 (ES6): > 2 µM | IC50 (ES7): > 2 µM | IC50 (EW-3): > 2 µM | IC50 (GOTO): > 2 µM | IC50 (HCC2218): > 2 µM | IC50 (HEL): > 2 µM | IC50 (IST-MES1): > 2 µM | IC50 (K562): 1.72 µM | IC50 (KS-1): > 2 µM | IC50 (L-363): > 2 µM | IC50 (L-428): > 2 µM | IC50 (LS-1034): > 2 µM | IC50 (LU-139): > 2 µM | IC50 (MFM-223): > 2 µM | IC50 (MOLT-4): > 2 µM | IC50 (MPP-89): > 2 µM | IC50 (MV4-11): > 2 µM | IC50 (Mo): > 2 µM | IC50 (NB10): > 2 µM | IC50 (NB13): > 2 µM | IC50 (NB69): > 2 µM | IC50 (NCI-H1299): > 2 µM | IC50 (NCI-H1304): > 2 µM | IC50 (NCI-H1648): > 2 µM | IC50 (NCI-H1770): > 2 µM | IC50 (NCI-H1838): > 2 µM | IC50 (NCI-H720): > 2 µM | IC50 (NH-12): > 2 µM | IC50 (NOS-1): > 2 µM | IC50 (OS-RC-2): > 2 µM | IC50 (SF-126): > 2 µM | IC50 (SF-539): 0.204 µM | IC50 (SK-LMS-1): 1.77 µM | IC50 (SK-MEL-2): > 2 µM | IC50 (SK-NEP-1): > 2 µM | IC50 (SK-PN-DW): > 2 µM | IC50 (SW684): > 2 µM | IC50 (TE-1): > 2 µM | IC50 697: > 2 µM | IC50 (A704): > 2 µM | IC50 (ATN-1): > 2 µM | IC50 (BB49-HNC): > 2 µM | IC50 (TE-12): > 2 µM | IC50 (TE-6): > 2 µM | IC50 (TK-10): > 2 µM | IC50 (CGTH-W-1): > 2 µM

Cc1ccc(-n2nc(C(C)(C)C)cc2NC(=O)Nc2ccc(OCCN3CCOCC3)c3ccccc23)cc1 [DORAMAPIMOD]
IC50 (COLO-829): > 10 µM | IC50 (D-263MG): > 10 µM | IC50 (DU-4475): > 10 µM | IC50 (ES5): > 10 µM | IC50 (ES6): > 10 µM | IC50 (ES7): > 10 µM | IC50 (EW-3): > 10 µM | IC50 (GOTO): 6.39 µM | IC50 (HCC2218): > 10 µM | IC50 (HEL): > 10 µM | IC50 (IST-MES1): 7.96 µM | IC50 (K562): > 10 µM | IC50 (KS-1): > 10 µM | IC50 (L-363): > 10 µM | IC50 (L-428): > 10 µM | IC50 (LS-1034): > 10 µM | IC50 (LU-139): > 10 µM | IC50 (MFM-223): > 10 µM | IC50 (MOLT-4): > 10 µM | IC50 (MPP-89): 8.46 µM | IC50 (MV4-11): > 10 µM | IC50 (Mo): > 10 µM | IC50 (NB10): > 10 µM | IC50 (NB13): > 10 µM | IC50 (NB69): > 10 µM | IC50 (NCI-H1299): > 10 µM | IC50 (NCI-H1304): > 10 µM | IC50 (NCI-H1648): > 10 µM | IC50 (NCI-H1770): > 10 µM | IC50 (NCI-H1838): > 10 µM | IC50 (NCI-H720): > 10 µM | IC50 (NH-12): > 10 µM | IC50 (NOS-1): > 10 µM | IC50 (OS-RC-2): > 10 µM | IC50 (SF-126): > 10 µM | IC50 (SF-539): > 10 µM | IC50 (SK-LMS-1): > 10 µM | IC50 (SK-MEL-2): > 10 µM | IC50 (SK-NEP-1): > 10 µM | IC50 (SK-PN-DW): > 10 µM | IC50 (SW684): > 10 µM | IC50 (TE-1): > 10 µM | IC50 697: > 10 µM | IC50 (A704): > 10 µM | IC50 (ATN-1): > 10 µM | IC50 (BB49-HNC): > 10 µM | IC50 (TE-12): > 10 µM | IC50 (TE-6): > 10 µM | IC50 (TK-10): > 10 µM | IC50 (CGTH-W-1): > 10 µM

CN(NC(=O)CC(=O)NN(C)C(=S)c1ccccc1)C(=S)c1ccccc1 [ELESCLOMOL]
IC50 (COLO-829): 0.0431 µM | IC50 (D-263MG): > 0.2 µM | IC50 (DU-4475): 0.112 µM | IC50 (ES5): 0.0118 µM | IC50 (ES6): 0.04 µM | IC50 (ES7): 0.00359 µM | IC50 (EW-3): 0.0399 µM | IC50 (GOTO): 0.0187 µM | IC50 (HCC2218): > 0.2 µM | IC50 (HEL): 0.00708 µM | IC50 (IST-MES1): 0.0541 µM | IC50 (K562): > 0.2 µM | IC50 (KS-1): 0.0138 µM | IC50 (L-363): 0.0123 µM | IC50 (L-428): > 0.2 µM | IC50 (LS-1034): > 0.2 µM | IC50 (LU-139): 0.121 µM | IC50 (MFM-223): 0.0452 µM | IC50 (MOLT-4): 0.105 µM | IC50 (MPP-89): 0.00913 µM | IC50 (MV4-11): 0.018 µM | IC50 (Mo): > 0.2 µM | IC50 (NB10): 0.0152 µM | IC50 (NB13): 0.0231 µM | IC50 (NB69): 0.00122 µM | IC50 (NCI-H1299): 0.0185 µM | IC50 (NCI-H1304): > 0.2 µM | IC50 (NCI-H1648): > 0.2 µM | IC50 (NCI-H1770): > 0.2 µM | IC50 (NCI-H1838): 0.184 µM | IC50 (NCI-H720): 0.124 µM | IC50 (NH-12): 0.134 µM | IC50 (NOS-1): < 0.000781 µM | IC50 (OS-RC-2): 0.0477 µM | IC50 (SF-126): 0.00195 µM | IC50 (SF-539): 0.0244 µM | IC50 (SK-LMS-1): > 0.2 µM | IC50 (SK-MEL-2): 0.0732 µM | IC50 (SK-NEP-1): 0.0761 µM | IC50 (SK-PN-DW): 0.00902 µM | IC50 (SW684): > 0.2 µM | IC50 (TE-1): 0.046 µM | IC50 697: 0.00613 µM | IC50 (A704): 0.0275 µM | IC50 (ATN-1): > 0.2 µM | IC50 (BB49-HNC): 0.126 µM | IC50 (TE-12): > 0.2 µM | IC50 (TE-6): 0.139 µM | IC50 (TK-10): 0.0423 µM | IC50 (CGTH-W-1): 0.011 µM
